Here are results for one molecule from patent US11786503B2, “Pharmaceutical compositions and methods for countering chemotherapy induced cardiotoxicity” (Auransa Inc., priority 2016, dated 2023).

Series [1] deals with cardiomyocytes differentiated from induced pluripotent stem cells. The series is described as follows: electrophysiological activity with doxorubicin, active electrodes (Example 20). It is filed as cell-based, human. Particulars: for decrease in the number of active electrodes: 24 hours. The method, then:
Samples were either mock-treated with 0.1% DMSO, treated with 1 μM doxorubicin, or co-treated with 1 μM doxorubicin and various concentrations of vitexin (e.g., 11.6 μM, 37 μM, or 116 μM). Following treatment, the percentage of active electrodes in each sample was measured for 72 hours. Percentage of active electrodes was quantified and graphed in a time course (FIG. 28A). The average number of active electrodes per well was quantified and graphed at 30 hours after the treatment (FIG. 28B, n=6, standard deviation is shown as error bars).

The next series concerns A549 cells. The series is described as follows: doxorubicin-mediated death of lung cancer cells, CellTiter-Glo (Example 22). It is filed as cell-based. Particulars: co-treated with increasing concentrations of doxorubicin, 72 hours. The method, then:
A549 cells (lung cancer) were cultured for 1 day before performing experiments. […] XLFit was used for curve fitting.
In general terms: In ATP-based viability assays light output follows the ATP content of the culture.

The test system of series [2] is cardiomyocytes differentiated from induced pluripotent stem cells. The series is described as follows: doxorubicin-induced apoptosis, TUNEL dye, 48 hours (Example 18). It is filed as cell-based, human. The note with it: 1 μM doxorubicin, VIT 115 μM, Dex 160 μM, AMB 0.76 μM, NAC 50 μM, KAE 17 μM, MES 10 μM. The method, then:
Following treatment, the samples were incubated with a TUNEL dye to indicate apoptosis-positive cells, and a second dye to identify cell nuclei.

A further series has as its system MDA-MB-231 cells. The note with it: co-treated with increasing concentrations of doxorubicin, 72 hours.
Series [3] concerns cardiomyocytes differentiated from induced pluripotent stem cells. The series is described as follows: acute toxicity on electrophysiology, MEA beat period and field potential duration (Example 23). The note with it: lower drug concentration, at least 20 minutes. The series is classed as cell-based. The method, then:
Samples were either mock-treated with 0.1% DMSO, or treated with increasing concentrations of the indicated drug for at least 20 minutes. Cardiomyocytes were treated with the hERG potassium channel blocker E4031 as a control. Following treatment, the beat period and field potential duration (FPD) were measured in each sample using the MEA.

For series [4] the test system is unchanged. The series is described as follows: long-term mitochondrial health, TMRM, 7 days (Example 19). The note with it: doxorubicin and vitexin, compared to doxorubicin or doxorubicin and dexrazoxane. The series is classed as cell-based, human.
For series [5] the test system is unchanged. The series is described as follows: long term toxicity on electrophysiology, active electrodes (Example 24). Particulars: various concentrations, at least 5 days. It is filed as cell-based. The method, then: Samples were either mock-treated with 0.1% DMSO, or treated with various concentrations of the indicated drug. Following treatment, the percentage of active electrodes in each sample was measured for at least 5 days. Percentage of active electrodes was quantified and graphed in a time course.

Structures are written as SMILES.

Take `O=c1cc(-c2ccc(O)cc2)oc2c([C@@H]3O[C@H](CO)[C@@H](O)[C@H](O)[C@H]3O)c(O)cc(O)c12` [vitexin]: the “decrease in the number of active electrodes” value in series [1] (1 μM doxorubicin and 11.6 μM vitexin) is given as roughly 50%; in series [1] (1 μM doxorubicin and 37 μM vitexin) it was roughly 25%; in series [1] (1 μM doxorubicin and 116 μM vitexin), roughly 0%. The “average number of active electrodes” value in series [1] (1 μM doxorubicin and 116 μM vitexin, 30 hours) is “about 10 active electrodes”. The “difference in the percentage of cell death vs doxorubicin without protective agent” value in the series with A549 cells and in the series with MDA-MB-231 cells was “no significant difference” in each case. Also, the “decrease in apoptosis, compared to doxorubicin without protective agent” value in series [2] is listed as “at least 60%”. Further, the “difference in beat period or field potential duration vs control samples” value in series [3] is on record as “no appreciable difference”. Besides, the “long term mitochondrial protection” value in series [4] was “improved long term mitochondrial protection”. The “decrease in the number of active electrodes relative to the mock-treated sample” value in series [5] is “no observable decrease”.
